Laboratory results published in ChEMBL document CHEMBL1127649, “Protein kinase C. Modeling of the binding site and prediction of binding constants” (J Med Chem, 1994).

biological target: Protein kinase C alpha type (Homo sapiens, UniProt P17252); test: Binding affinity (Ki) towards Protein kinase C

SMILES | Ki [µM]
CCCCCCCCCCC/C=C1/C(=O)O[C@@H](CO)[C@@]12CCC(=O)O2 | 13.6
CCCCCCCCCCCCCC(=O)O[C@@H]1CC(=O)O[C@@H]1CO | 300
CCCCCCCCCCCCCC(=O)O[C@H]1CC(=O)O[C@H]1CO | 31
CC(=O)O[C@@H]1CC(=O)O[C@H]1CO | > 1700
CCCCCCCCCCCCCC(=O)O[C@H]1CC(=O)O[C@@H]1CO | 5.3
CO[C@@H](CC[C@H](C)[C@H]1O[C@@]23CC(OC(=O)C[C@H]([C@@H](C)O)OC(=O)C[C@](O)(O2)[C@H](C)CC3(C)C)[C@@H]1C)c1cccc(O)c1 | 0.02
CCCCCCCCCCC(=O)O[C@@H]1CC(=O)O[C@H]1CO | 4.1
CCCCCCCCCCC[C@@H]1C(=O)O[C@]2(CO)COC(=O)[C@H]12 | 7.7
CCCCCCCCCCCCCCCCCCC(=O)O[C@@H]1CC(=O)O[C@H]1CO | 8.7
CCCCCCCCCCC[C@@H]1C(=O)O[C@H]2[C@@H]1C(=O)O[C@@H]2CO | 27.8
CCCCCCCCCCCCCC(=O)OC[C@H](CO)OC(C)=O | 1.3
CCCCCCCCCCCC[C@@H]1C(=O)O[C@]2(CO)CC(=O)O[C@H]12 | 7.6
CCCCCCC(=O)O[C@@H]1CC(=O)O[C@H]1CO | 187
CCCCCCCCCCC[C@H]1C(=O)O[C@@]2(CO)COC(=O)[C@@H]12 | 22
CCCCCCCCCCCCCC(=O)C1CC(=O)O[C@H]1CO (stereo partly specified) | 2.5
CCCCCCCCCCCCC1C(=O)O[C@@H](CO)[C@@]12CCC(=O)O2 (stereo partly specified) | 75.3
